Measurements from patent US6562828B1, “Amidine compounds” (Japan Tobacco Inc., priority 1998, dated 2003).
Structures can show the parent of a compound that is named as a salt.

What was measured:
normal plasma [1] = test: Determination of prothrombin time (PT), mouse plasma; format: biochemical
Description: (§1) Determination of prothrombin time (PT)
(§2) Blood was taken from mouse, rat, crab-eating monkey and healthy human volunteers, and citric acid was added. The blood was centrifuged at 4° C. and 2000 G for 15 min to obtain normal plasma of various animals.
(§3) Purified water (5 μl) containing various concentrations of test compound was added to plasma (45 μl) and the resultant mixtures were used as samples. […] (Baxter) was prepared and heated at […] for 5 min, and a sample (50 μl) was admixed with the thrombin reagent (100 μl). The time (PT) until precipitation of fibrin was measured. The drug concentration that doubled the PT hours of the drug untreated group was calculated and taken as CT2.

normal plasma [2] = test: Determination of prothrombin time (PT), rat plasma; format: biochemical
Description: as §1, §2, §3

normal plasma [3] = test: Determination of prothrombin time (PT), crab-eating monkey plasma; format: biochemical
Description: as §1, §2, §3

normal plasma [4] = test: Determination of prothrombin time (PT), human plasma; format: biochemical
Description: as §1, §2, §3

Human FXa [5] = molecular target: T1, Human FXa (Homo sapiens, UniProt P00742); test: Intravenous administration test in mouse, human FXa inhibitory activity in serum; format: in vivo; conditions: ICR mice, i.v., mean ± S.D., n = 3
T1 construct: Human FXa [Enzyme research Laboratories (USA)] enzyme; purchased Enzyme Research Laboratories (USA)
Description: Intravenous Administration Tests in Mouse
A test compound dissolved in physiological saline was intravenously administered to ICR mice (body weight 20-30 g, 4-6 weeks old) and the activity of the test compound was evaluated based on the human FXa inhibitory activity in serum as an indicator.
At 10, 30, 60, 120 min from the intravenous administration, blood was taken from the eye ground using a hematocrit tube. The blood was centrifuged at 9000 G for 5 min and the obtained serum was used for the determination.
(§4) Human FXa inhibitory activity was measured as follows. Human FXa [Enzyme research Laboratories (USA)] enzyme (40 μl, 0.5 U/ml) and a 4-fold diluted plasma sample (40 μl) were incubated in 0.1M Tris-0.2M NaCl buffer (pH 8.4) (40 μl) at 37° C. for 10 min. A synthetic substrate S-2222 (Daiichi Pure Chemical (Tokyo, Japan), 40 μl) adjusted to 0.8 mM was added and the mixture was incubated at 37° C. for 5 min. The reaction was stopped by addition of 60% acetic acid (40 μl) and absorbance at 405 nm was measured by Model 3550 (BIO-RAD). For the control, serum or plasma obtained prior to blood sampling was used for measurement. Human FXa inhibitory activity was calculated as inhibition percentage (%) against control.

Human FXa [6] = molecular target: T1, Human FXa; test: Oral administration test in mouse, human FXa inhibitory activity in serum; format: in vivo; conditions: ICR mice, mean ± S.D., n = 3
Description: as §4
Oral Administration Tests in Mouse
A test compound dissolved in distilled water was orally administered to ICR mice (body weight 20-30 g, 4-6 weeks old) and the activity of the test compound was evaluated based on the human FXa inhibitory activity in serum as an indicator.
At 30, 60, 120, 180 min from the oral administration, blood was taken from the eye ground using a hematocrit tube. The blood was centrifuged at 9000 G for 5 min and the obtained serum was used for the determination. Human FXa inhibitory activity was determined in the same manner as in the test by intravenous administration.

[7] = tested on: decrease of platelets and formation of FDP by thromboplastin; test: Blood coagulation model in rat (thromboplastin); format: in vivo; conditions: i.v. 10 min before thromboplastin, mean ± S.D, n = 3; for PLT value: counted 10 min later; for FDP value: measured 30 min later
Description: Blood Coagulation Model in Rat
Intravenous administration of thromboplastin (Sigma) to rat promotes coagulation system, which in turn decreases platelets and increases fibrin degradation product (FDP). Thus, the test compound was intravenously administered 10 min before thromboplastin administration and the inhibitory effects of the test compound on the decrease of platelets and the formation of FDP by thromboplastin were studied. The thromboplastin administered had such concentration as to form clots within 20 seconds from the addition of one plasma dose to two thromboplastin doses and was administered in 1 ml/kg dose. Platelets were counted (PLT value) 10 min later on a blood cell counter sysmex F-800 [Dade International Inc. (USA)], and FDP was measured 30 min later using FDP latex reagent for serum [Teikoku Hormone Mfg. Co., Ltd. (Tokyo, Japan)]. In every Example, the PLT value of the thromboplastin untreated group was (106±13)×10^4 and the FDP value of this group was 0±0 μg/ml.

Human FIIa = molecular target: T2, Human FIIa (Homo sapiens, UniProt P00734); test: Determination of anti-factor IIa (FIIa) activity, synthetic substrate S-2238; format: biochemical; conditions: S-2238, 37° C., pH 8.4, read-out: Experimental Example 2: anti-FIIa activity, IC50
T2 construct: purchased Sigma

Human FXa [8] = molecular target: T1, Human FXa; test: Intravenous administration test in monkey, human FXa inhibitory activity in plasma; format: in vivo; conditions: crab-eating monkey, i.v., mean ± S.D., n = 3
Description: as §4
Intravenous Administration Tests in Monkey
A test compound dissolved in physiological saline was intravenously administered to monkey (crab-eating monkey, body weight 3.5-4.5 kg) and the activity of the test compound was evaluated based on the human FXa inhibitory activity in plasma as an indicator.
(§5) At 10, 30, 60, 120, 180 min from the intravenous administration, blood was taken from the saphenous vein with the passage of time and the blood was centrifuged at 2000 G for 10 min. The obtained citric acid plasma was used for the determination. Human FXa inhibitory activity was determined in the same manner as in the test using mouse.

Human FXa [9] = molecular target: T1, Human FXa; test: Oral administration test in monkey, human FXa inhibitory activity in plasma; format: in vivo; conditions: crab-eating monkey, mean ± S.D., n = 3
Description: as §4
Oral Administration Tests in Monkey
A test compound dissolved in distilled water was orally administered to monkey (carb-eating monkey, body weight 3.5-4.5 kg) and the activity of the test compound was evaluated based on the human FXa inhibitory activity in plasma as an indicator.
as §5, with “At” for “At 10,”, “240, 480” for “180”, “oral” for “intravenous”, “by intravenous administration.” for “using mouse.”

T1 sequence (P00742 235-488 limits assumed): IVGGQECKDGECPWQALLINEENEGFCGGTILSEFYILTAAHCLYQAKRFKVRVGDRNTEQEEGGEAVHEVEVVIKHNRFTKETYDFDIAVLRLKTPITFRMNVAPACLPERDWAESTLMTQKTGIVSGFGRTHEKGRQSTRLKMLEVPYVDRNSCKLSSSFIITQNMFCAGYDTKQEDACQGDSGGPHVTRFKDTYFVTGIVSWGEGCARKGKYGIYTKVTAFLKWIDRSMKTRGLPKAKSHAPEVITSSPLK
T1 sequence (P00742 41-179 limits assumed): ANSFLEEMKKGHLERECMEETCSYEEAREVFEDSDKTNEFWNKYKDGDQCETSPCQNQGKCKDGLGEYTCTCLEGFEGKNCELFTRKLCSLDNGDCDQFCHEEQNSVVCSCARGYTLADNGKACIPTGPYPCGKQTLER

With CC(=N)N1CC[C@H](Oc2ccc([C@H](Cc3ccc4ccc(C(=N)N)cc4c3)C(=O)O)cc2)C1 [Comparative Example 1, (2S)-2-[4-[(3S)-1-acetimidoylpyrrolidin-3-yloxy]phenyl]-3-[7-amidinonaphthalen-2-yl]propionic acid hydrochloride pentahydrate, reference compound] the “CT2 (drug concentration that doubled the PT)” value (shortened to “CT2”) (normal plasma [1]) was 10 µM, the “CT2” value (normal plasma [2]) was 10 µM and the “CT2” value (normal plasma [3]) was 4 µM. The “CT2” value (normal plasma [4]) was 2 µM, the inhibition at 1 mg/kg (Human FXa [5]; 10 minutes) was 43 ± 3% and the inhibition at 1 mg/kg (Human FXa [5]; 30 minutes) was 14 ± 2%. The inhibition at 1 mg/kg (Human FXa [5]; 60 minutes) was 0%, the inhibition at 1 mg/kg (Human FXa [5]; 120 minutes) was 1 ± 2% and the inhibition at 10 mg/kg (Human FXa [6]; 30 minutes) was 11 ± 4%. It also gave an inhibition at 10 mg/kg (Human FXa [6]; 60 minutes) of 6 ± 4%, an inhibition at 10 mg/kg (Human FXa [6]; 120 minutes) of 6 ± 4% and an inhibition at 10 mg/kg (Human FXa [6]; 180 minutes) of 6 ± 4%. The PLT value ([7]; dose 0.03 mg/kg) was 41 ± 9 ×10^4 blood platelet/μl, the FDP value ([7]; dose 0.03 mg/kg) was 9 ± 2 µg/mL and the PLT value ([7]; dose 0.1 mg/kg) was 67 ± 16 ×10^4 blood platelet/μl. For the same molecule, the FDP value ([7]; dose 0.1 mg/kg) was 3 ± 2 µg/mL, the PLT value ([7]; dose 0.3 mg/kg) was 100 ± 5 ×10^4 blood platelet/μl and the FDP value ([7]; dose 0.3 mg/kg) was 1 ± 1 µg/mL.
For N=C(N)N1CCc2ccc(OCC3(C(=O)O)CCN(c4ccncc4)CC3)cc2C1 [Example 7, 4-(2-Amidino-1,2,3,4-tetrahydroisoquinolin-7-yloxymethyl)-1-(pyridin-4-yl)piperidine-4-carboxylic Acid Dihydrochloride], the IC50 (Human FIIa) was over 10 µM, the “CT2” value (normal plasma [1]) was 10 µM and the “CT2” value (normal plasma [2]) was 30 µM. The “CT2” value (normal plasma [4]) was 0.5 µM, the inhibition at 1 mg/kg (Human FXa [5]; 10 minutes) was 64 ± 2% and the inhibition at 1 mg/kg (Human FXa [5]; 30 minutes) was 54 ± 1%. The inhibition at 1 mg/kg (Human FXa [5]; 60 minutes) was 46 ± 4%, the inhibition at 1 mg/kg (Human FXa [5]; 120 minutes) was 30 ± 5% and the inhibition at 3 mg/kg (Human FXa [5]; 10 minutes) was 82 ± 1%. It also gave an inhibition at 3 mg/kg (Human FXa [5]; 30 minutes) of 78 ± 1%, an inhibition at 3 mg/kg (Human FXa [5]; 60 minutes) of 72 ± 2% and an inhibition at 3 mg/kg (Human FXa [5]; 120 minutes) of 59 ± 5%. The inhibition at 10 mg/kg (Human FXa [6]; 30 minutes) was 48 ± 7%, the inhibition at 10 mg/kg (Human FXa [6]; 60 minutes) was 40 ± 9% and the inhibition at 10 mg/kg (Human FXa [6]; 120 minutes) was 26 ± 7%. For the same molecule, the inhibition at 10 mg/kg (Human FXa [6]; 180 minutes) was 18 ± 9%, the PLT value ([7]; dose 0.1 mg/kg) was 66 ± 21 ×10^4 blood platelet/μl and the FDP value ([7]; dose 0.1 mg/kg) was 7 ± 3 µg/mL. For the same molecule, the PLT value ([7]; dose 0.3 mg/kg) was 72 ± 10 ×10^4 blood platelet/μl, the FDP value ([7]; dose 0.3 mg/kg) was 4 ± 1 µg/mL and the PLT value ([7]; dose 1 mg/kg) was 96 ± 18 ×10^4 blood platelet/μl. The FDP value ([7]; dose 1 mg/kg) was 0 ± 0 µg/mL.
N=C(N)N1CCc2ccc(OCC3(C(=O)O)CCN(c4ccncc4)CC3)cc2C1 [Example 9, 4-(2-Amidino-1,2,3,4-tetrahydroisoquinolin-7-yloxymethyl)-1-(pyridin-4-yl)piperidine-4-carboxylic Acid Hydrochloride] gave an inhibition at 1 mg/kg (Human FXa [8]; 10 minutes) of 82 ± 1%, an inhibition at 1 mg/kg (Human FXa [8]; 30 minutes) of 72 ± 2% and an inhibition at 1 mg/kg (Human FXa [8]; 60 minutes) of 58 ± 4%. The inhibition at 1 mg/kg (Human FXa [8]; 120 minutes) was 41 ± 3%, the inhibition at 1 mg/kg (Human FXa [8]; 180 minutes) was 29 ± 2% and the inhibition at 10 mg/kg (Human FXa [9]; 30 minutes) was 28 ± 33%. For the same molecule, the inhibition at 10 mg/kg (Human FXa [9]; 60 minutes) was 37 ± 27%, the inhibition at 10 mg/kg (Human FXa [9]; 120 minutes) was 46 ± 20% and the inhibition at 10 mg/kg (Human FXa [9]; 240 minutes) was 49 ± 9%. The inhibition at 10 mg/kg (Human FXa [9]; 480 minutes) was 23 ± 11%.
For N=C(N)N1CCc2ccc(OCC3(C(=O)O)CCN(c4ccncc4)CC3)cc2C1 [Example 67, 4-(2-Amidino-1,2,3,4-tetrahydroisoquinolin-7-yloxymethyl)-1-(pyridin-4-yl)piperidine-4-carboxylic Acid Methanesulfonate], the “CT2” value (normal plasma [3]) was 5 µM.
